In US20260062412A1, “NITROGEN-CONTAINING HETEROCYCLIC COMPOUND HAVING MYT1 INHIBITORY ACTIVITY” (CHUGAI SEIYAKU KABUSHIKI KAISHA, priority 2023, published 2026):

Target: MYT1 protein (Homo sapiens (Human), UniProt Q99640)
Assay: Test for binding to ATP binding site of MYT1 (Kinase Tracer 178 / Eu-Anti-GST antibody TR-FRET)
Conditions: ATP binding site of MYT1, 30 minutes at room temperature

Sequence of MYT1 protein (Q99640 whole entry): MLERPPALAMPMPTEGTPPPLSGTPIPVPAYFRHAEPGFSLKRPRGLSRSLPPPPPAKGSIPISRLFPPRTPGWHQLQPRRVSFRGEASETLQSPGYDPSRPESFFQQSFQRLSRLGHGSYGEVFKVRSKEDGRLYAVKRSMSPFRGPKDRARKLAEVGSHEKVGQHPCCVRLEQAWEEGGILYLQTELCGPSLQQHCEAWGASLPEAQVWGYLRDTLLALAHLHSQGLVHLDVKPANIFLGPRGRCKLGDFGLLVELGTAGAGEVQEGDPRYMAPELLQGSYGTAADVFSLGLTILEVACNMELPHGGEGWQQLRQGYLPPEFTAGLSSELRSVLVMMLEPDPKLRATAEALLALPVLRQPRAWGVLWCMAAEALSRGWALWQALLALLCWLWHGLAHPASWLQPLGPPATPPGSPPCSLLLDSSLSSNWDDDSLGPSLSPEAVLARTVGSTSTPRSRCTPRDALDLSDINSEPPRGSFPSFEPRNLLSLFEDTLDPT

Compared with Cc1cc2c(-c3cccc(O)c3)c(N)c(=O)[nH]c2c2ccccc12 [Compound B6, 3-Amino-4-(3-hydroxyphenyl)-6-methyl-1H-benzo[h]quinolin-2-one], Nc1c(-c2ccccc2)c2ccccc2[nH]c1=O [Compound A70, 3-Amino-4-phenyl-1H-quinolin-2-one] is 890-fold higher in IC50: 7 nM for the first, 6200 nM for the second.

Nc1c(-c2ccc(Cl)c3[nH]ncc23)c2cc(C(=O)NC3CC3)ccc2[nH]c1=O [Compound A37, 3-Amino-4-(7-chloro-1H-indazol-4-yl)-N-cyclopropyl-2-oxo-1H-quinoline-6-carboxamide] and CC(=O)c1ccc2[nH]c(=O)c(N)c(-c3ccc(Cl)c4[nH]ncc34)c2c1 [Compound A31, 6-Acetyl-3-amino-4-(7-chloro-1H-indazol-4-yl)-1H-quinolin-2-one] are within 1.5-fold of each other in IC50: 5.6 nM for the first, 7.6 nM for the second.

Nc1c(-c2ccc(F)c3[nH]ncc23)c2cc(N3CC(F)(F)C3)c3ncccc3c2[nH]c1=O [Compound C123, 3-Amino-6-(3,3-difluoroazetidin-1-yl)-4-(7-fluoro-1H-indazol-4-yl)-1H-1,7-phenanthrolin-2-one] and CC1(COc2cc3c(-c4ccc(F)c5[nH]ncc45)c(N)c(=O)[nH]c3c3cccnc23)CC(F)(F)C1 [Compound C52, 3-Amino-6-[(3,3-difluoro-1-methylcyclobutyl)methoxy]-4-(7-fluoro-1H-indazol-4-yl)-1H-1,7-one] are within 1.5-fold of each other in IC50: 3.4 nM for the first, 2.6 nM for the second.

Cc1cc2c(-c3cc(F)c(Cl)c4[nH]ncc34)c(N)c(=O)[nH]c2c2cccnc12 [Compound C196, 3-Amino-4-(7-chloro-6-fluoro-1H-indazol-4-yl)-6-methyl-1H-1,7-phenanthrolin-2-one] and Nc1c(-c2cc(F)c(F)c3[nH]ncc23)c2cc(OC(F)F)c3ncccc3c2[nH]c1=O [Compound C205, 3-Amino-4-(6,7-difluoro-1H-indazol-4-yl)-6-(difluoromethoxy)-1H-1,7-phenanthrolin-2-one] are within 1.5-fold of each other in IC50: 3.6 nM for the first, 3.4 nM for the second.

CS(=O)(=O)Nc1cc2c(-c3ccc(F)c4[nH]ncc34)c(N)c(=O)[nH]c2c2nccnc12 [Compound G5, N-[8-amino-7-(7-fluoro-1H-indazol-4-yl)-9-oxo-10H-pyrido[2,3-f]quinoxalin-5-yl]methanesulfonamide] and Cc1cc2c(-c3ccc(F)c4[nH]ncc34)c(N)c(=O)[nH]c2c2nccnc12 [Compound G3, 8-Amino-7-(7-fluoro-1H-indazol-4-yl)-5-methyl-10H-pyrido[2,3-f]quinoxalin-9-one] are within 1.5-fold of each other in IC50: 9.3 nM for the first, 7.9 nM for the second.

First: Nc1c(-c2ccc(F)c3[nH]ncc23)c2cc(O[C@H]3C[C@H](F)C3)c3ncccc3c2[nH]c1=O [Compound C42, 3-Amino-6-((1r,3r)-3-fluorocyclobutyl)oxy-4-(7-fluoro-1H-indazol-4-yl)-1H-1,7-phenanthrolin-2-one]
Second: Nc1c(-c2ccc(F)c3[nH]ncc23)c2cc(OC3CC4(COC4)C3)c3ncccc3c2[nH]c1=O [Compound C41, 3-Amino-4-(7-fluoro-1H-indazol-4-yl)-6-(2-oxaspiro[3,3]heptan-6-yloxy)-1H-1,7-one]
The IC50 of the first is 2.3-fold lower: 2.7 nM for the first, 6.1 nM for the second. The first is the more potent here.

Nc1c(-c2ccc(Cl)c3[nH]ncc23)c2ccc3ccccc3c2[nH]c1=O [Compound B44, 3-Amino-4-(7-chloro-1H-indazol-4-yl)-1H-benzo[h]quinolin-2-one] and Nc1c(-c2ccc(Cl)c3[nH]ncc23)c2cc(C3CCC3)c3ccccc3c2[nH]c1=O [Compound B39, 3-Amino-4-(7-chloro-1H-indazol-4-yl)-6-cyclobutyl-1H-benzo[h]quinolin-2-one] are within 1.5-fold of each other in IC50: 14 nM for the first, 10 nM for the second.

Going from Nc1c(-c2cc(F)c(F)c3[nH]ncc23)c2c(F)cc3ncccc3c2[nH]c1=O [Compound C221, 3-Amino-4-(6,7-difluoro-1H-indazol-4-yl)-5-fluoro-1H-1,7-phenanthrolin-2-one] to Nc1c(-c2ccc(F)c3[nH]ncc23)c2cc(CC(F)F)c3ncccc3c2[nH]c1=O [Compound C170, 3-Amino-6-(2,2-difluoroethyl)-4-(7-fluoro-1H-indazol-4-yl)-1H-1,7-phenanthrolin-2-one], the IC50 rises from 0.72 nM to 3.3 nM (4.6-fold).

Nc1c(-c2ccc(Cl)c3[nH]ncc23)c2cc(C3CCN(C4CCC4)CC3)ccc2[nH]c1=O [Compound A35, 3-Amino-4-(7-chloro-1H-indazol-4-yl)-6-(1-cyclobutylpiperidin-4-yl)-1H-quinolin-2-one] and CN1CC(c2ccc3[nH]c(=O)c(N)c(-c4ccc(Cl)c5[nH]ncc45)c3c2)C1 [Compound A39, 3-Amino-4-(7-chloro-1H-indazol-4-yl)-6-(1-methylazetidin-3-yl)-1H-quinolin-2-one] are within 1.5-fold of each other in IC50: 19 nM for the first, 23 nM for the second.

First: Nc1c(-c2ccc(F)c3[nH]ncc23)c2cc(OCC3CC3)c3ncccc3c2[nH]c1=O [Compound C11, 3-Amino-6-(cyclopropylmethoxy)-4-(7-fluoro-1H-indazol-4-yl)-1H-1,7-phenanthrolin-2-one]
Second: Nc1c(-c2ccc(F)c3[nH]ncc23)c2cc(OCCCF)c3ncccc3c2[nH]c1=O [Compound C19, 3-Amino-4-(7-fluoro-1H-indazol-4-yl)-6-(3-fluoropropoxy)-1H-1,7-phenanthrolin-2-one]
The IC50 of the first is 1.6-fold lower: 1.4 nM for the first, 2.2 nM for the second. The first is the more potent here.

Going from Cc1n[nH]c2cccc(-c3c(N)c(=O)[nH]c4ccc(Cl)cc34)c12 [Compound A62, 3-Amino-6-chloro-4-(3-methyl-1H-indazol-4-yl)-1H-quinolin-2-one] to Nc1nccc(-c2c(N)c(=O)[nH]c3ccc(Cl)cc23)n1 [Compound A69, 3-Amino-4-(2-aminopyrimidin-4-yl)-6-chloro-1H-quinolin-2-one], the IC50 falls from 3900 nM to 2500 nM (1.6-fold). The second is the more potent here.

Compared with CCOc1cc2c(-c3ccc(F)c4[nH]ncc34)c(N)c(=O)[nH]c2c2ccc(=O)[nH]c12 [Compound T6, 3-Amino-6-ethoxy-4-(7-fluoro-1H-indazol-4-yl)-1,7-dihydro-1,7-phenanthroline-2,8-dione], Nc1c(-c2ccc(F)c3[nH]ncc23)c2cc(I)c3cc(Cl)ccc3c2[nH]c1=O [Compound B13, 3-Amino-8-chloro-4-(7-fluoro-1H-indazol-4-yl)-6-iodo-1H-benzo[h]quinolin-2-one] is 39-fold higher in IC50: 2.2 nM for the first, 85 nM for the second.

First: Nc1c(-c2ccc(F)c3[nH]ncc23)c2cc(N3CCN(CC(F)F)CC3)c3cccnc3c2[nH]c1=O [Compound D14, 3-Amino-6-[4-(2,2-difluoroethyl)piperazin-1-yl]-4-(7-fluoro-1H-indazol-4-yl)-1H-1,10-phenanthrolin-2-one]
Second: CN1CCN(c2cc3c(-c4ccc(F)c5[nH]ncc45)c(N)c(=O)[nH]c3c3ncccc23)CC1 [Compound D6, 3-Amino-4-(7-fluoro-1H-indazol-4-yl)-6-(4-methylpiperazin-1-yl)-1H-1,10-phenanthrolin-2-one]
The IC50 of the first is 16-fold higher: 33 nM for the first, 2.1 nM for the second. The second is the more potent here.

Going from Nc1c(-c2ccnc3[nH]ncc23)c2cc(C3CC3)c3ncccc3c2[nH]c1=O [Compound C82, 3-Amino-6-cyclopropyl-4-(1H-pyrazolo[3,4-b]pyridin-4-yl)-1H-1,7-phenanthrolin-2-one] to Nc1c(-c2c(F)ccc3[nH]ncc23)c2cc(C3CC3)c3ncccc3c2[nH]c1=O (atropisomer, axis not shown) [Compound C157, (R)-3-amino-6-cyclopropyl-4-(5-fluoro-1H-indazol-4-yl)-1H-1,7-phenanthrolin-2-one], the IC50 rises from 11 nM to 310 nM (28-fold).

Nc1c(-c2ccc(F)c3[nH]ncc23)c2cc(CCC(F)(F)F)c3ncccc3c2[nH]c1=O [Compound C161, 3-Amino-4-(7-fluoro-1H-indazol-4-yl)-6-(3,3,3-trifluoropropyl)-1H-1,7-phenanthrolin-2-one] and Nc1c(-c2ccc(F)c3[nH]ncc23)c2cc(CC(F)(F)F)c3ncccc3c2[nH]c1=O [Compound C165, 3-Amino-4-(7-fluoro-1H-indazol-4-yl)-6-(2,2,2-trifluoroethyl)-1H-1,7-phenanthrolin-2-one] are within 1.5-fold of each other in IC50: 8.6 nM for the first, 7.1 nM for the second.

Nc1c(-c2ccc(F)c3[nH]ncc23)c2cc(C3CCNCC3)c3cccnc3c2[nH]c1=O [Compound D21, 3-Amino-4-(7-fluoro-1H-indazol-4-yl)-6-piperidin-4-yl-1H-1,10-phenanthrolin-2-one] and Nc1c(-c2ccc(F)c3[nH]ncc23)c2cc(C3CC3)c3cncnc3c2[nH]c1=O [Compound J3, 8-Amino-5-cyclopropyl-7-(7-fluoro-1H-indazol-4-yl)-10H-pyrido[3,2-h]quinazolin-9-one] are within 1.5-fold of each other in IC50: 3.8 nM for the first, 3.5 nM for the second.

Going from CC(F)(F)COc1cc2c(-c3ccc(F)c4[nH]ncc34)c(N)c(=O)[nH]c2c2cccnc12 [Compound C25, 3-Amino-6-(2,2-difluoropropoxy)-4-(7-fluoro-1H-indazol-4-yl)-1H-1,7-phenanthrolin-2-one] to CC(C)(COc1cc2c(-c3ccc(F)c4[nH]ncc34)c(N)c(=O)[nH]c2c2cccnc12)C(F)(F)F [Compound C59, 3-Amino-4-(7-fluoro-1H-indazol-4-yl)-6-(3,3,3-trifluoro-2,2-dimethylpropoxy)-1H-1,7-one], the IC50 rises from 2.8 nM to 5.3 nM (1.9-fold). The first is the more potent here.

CO[C@H](C)COc1cc2c(-c3ccc(F)c4[nH]ncc34)c(N)c(=O)[nH]c2c2cccnc12 [Compound C50, 3-Amino-4-(7-fluoro-1H-indazol-4-yl)-6-[(2R)-2-methoxypropoxy]-1H-1,7-phenanthrolin-2-one] and CC(C)Cc1cc2c(-c3ccc(F)c4[nH]ncc34)c(N)c(=O)[nH]c2c2cccnc12 [Compound C105, 3-Amino-4-(7-fluoro-1H-indazol-4-yl)-6-(2-methylpropyl)-1H-1,7-phenanthrolin-2-one] are within 1.5-fold of each other in IC50: 4 nM for the first, 5 nM for the second.

Compared with Nc1c(-c2ccc(F)c3[nH]ncc23)c2cc(N3CCN4CCOC[C@H]4C3)c3cccnc3c2[nH]c1=O [Compound D12, 6-[(9aR)-3,4,6,7,9,9a-hexahydro-1H-pyrazino[2,1-c][1,4]oxazin-8-yl]-3-amino-4-(7-fluoro-1H-indazol-4-yl)-1H-1,10-phenanthrolin-2-one], Cc1cc(Cl)cc2c(-c3ccc(Cl)c4[nH]ncc34)c(N)c(=O)[nH]c12 [Compound A26, 3-Amino-6-chloro-4-(7-chloro-1H-indazol-4-yl)-8-methyl-1H-quinolin-2-one] is 4.5-fold lower in IC50: 49 nM for the first, 11 nM for the second. The second is the more potent here.

In the case of Nc1c(-c2ccc(Cl)c3[nH]ncc23)c2cc(OC3CCC3)c(Cl)cc2[nH]c1=O [Compound A10, 3-Amino-7-chloro-4-(7-chloro-1H-indazol-4-yl)-6-cyclobutyloxy-1H-quinolin-2-one], the IC50 is reported as 4.3 nM.
